“And” between values parts separate entries of the source, which are not always exact repeats. Equal entries are not always repeated. Toxic doses and inconclusive results are not listed. No stated cut-off is given here; in the data, active means T/C of 150% or more; inactive means T/C below 125%. Peptide text beside a SMILES is read from it. * marks the point of attachment. Cbz = O=C(OCc1ccccc1)*
System: L1210 leukemia ip in BDF1 mice, survival T/C
Test: NCI In Vivo Anticancer Drug Screen. Data for tumor model L1210 Leukemia (intraperitoneal) in B6D2F1 (BDF1) mice
Conditions: endpoint: mean survival time, higher = longer survival
Method in brief: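 Mice bearing the transplanted tumor received compound or vehicle. Survival of the treated group was divided by that of the vehicle-treated control group to give the ratio.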

[1] = dose: 100.0 mg/kg/injection, schedule: Q01DX009 (ip), vehicle: saline with Tween-80
[2] = dose: 200.0 mg/kg/injection, schedule: Q01DX009 (ip), vehicle: saline with Tween-80
[3] = dose: 400.0 mg/kg/injection, schedule: Q01DX009 (ip), vehicle: saline with Tween-80
[4] = dose: 100.0 mg/kg/injection, schedule: Q04DX003 (ip), vehicle: saline
[5] = dose: 200.0 mg/kg/injection, schedule: Q04DX003 (ip), vehicle: saline
[6] = dose: 400.0 mg/kg/injection, schedule: Q04DX003 (ip), vehicle: saline
[7] = dose: 100.0 mg/kg/injection, schedule: Q01DX001 (ip), vehicle: saline
[8] = dose: 200.0 mg/kg/injection, schedule: Q01DX001 (ip), vehicle: saline
[9] = dose: 400.0 mg/kg/injection, schedule: Q01DX001 (ip), vehicle: saline
[10] = dose: 100.0 mg/kg/injection, schedule: Q01DX009 (ip), vehicle: Klucel (hydroxypropylcellulose) (HPC)
[11] = dose: 100.0 mg/kg/injection, schedule: Q04DX002 (ip), vehicle: Klucel (hydroxypropylcellulose) (HPC)
[12] = dose: 200.0 mg/kg/injection, schedule: Q01DX009 (ip), vehicle: Klucel (hydroxypropylcellulose) (HPC)
[13] = dose: 200.0 mg/kg/injection, schedule: Q04DX002 (ip), vehicle: Klucel (hydroxypropylcellulose) (HPC)
[14] = dose: 150.0 mg/kg/injection, schedule: Q04DX003 (ip), vehicle: Klucel (hydroxypropylcellulose) (HPC)
[15] = dose: 25.0 mg/kg/injection, schedule: Q01DX009 (ip), vehicle: saline
[16] = dose: 50.0 mg/kg/injection, schedule: Q01DX009 (ip), vehicle: saline
[17] = dose: 100.0 mg/kg/injection, schedule: Q04DX003 (ip), vehicle: Klucel (hydroxypropylcellulose) (HPC)
[18] = dose: 200.0 mg/kg/injection, schedule: Q04DX003 (ip), vehicle: Klucel (hydroxypropylcellulose) (HPC)
[19] = dose: 400.0 mg/kg/injection, schedule: Q01DX009 (ip), vehicle: Klucel (hydroxypropylcellulose) (HPC)
[20] = dose: 400.0 mg/kg/injection, schedule: Q04DX003 (ip), vehicle: Klucel (hydroxypropylcellulose) (HPC)

Measured: T/C

Cc1ccc(Nc2nc(N)nc(N)c2N)cc1Cl
inactive: dose: 100.0 mg/kg/injection, schedule: Q01DX Z (ip), vehicle: saline 104 % of control

COc1ccccc1C(=O)N/N=C/c1cccc2ccccc12
inactive: [1] 114 % of control | dose: 100.0 mg/kg/injection, schedule: Q04DX003 (ip), vehicle: saline with Tween-80 103 % of control | [2] 105 % of control | dose: 200.0 mg/kg/injection, schedule: Q04DX003 (ip), vehicle: saline with Tween-80 96 % of control | [3] 107 % of control | dose: 400.0 mg/kg/injection, schedule: Q04DX003 (ip), vehicle: saline with Tween-80 94 % of control

COC(=O)CNC(=O)C(CC(C)C)NC(=O)C(CC(C)C)NC(=O)C(C)NC(=O)OCc1ccccc1 (configuration not stated) (Cbz-ALLG-OMe; configuration not given here)
inactive: [4] 94 % of control | [5] 98 % of control | [6] 98 % of control

c1ccc(CSC2=NCCS2)cc1
inactive: [7] 101 % of control | [1] 98 % of control | [8] 106 % of control | [2] 98 % of control | [9] 106 % of control | [3] 104 % of control

CCCCC(=O)N1C(C)CCC1C (configuration not stated)
inactive: dose: 100.0 mg/kg/injection, schedule: Q04DX002 (ip), vehicle: saline 105 % of control | dose: 200.0 mg/kg/injection, schedule: Q04DX002 (ip), vehicle: saline 88 % of control

O=[N+]([O-])/C=C/c1ccc(Cl)cc1
inactive: dose: 25.0 mg/kg/injection, schedule: Q01DX009 (ip), vehicle: Klucel (hydroxypropylcellulose) (HPC) 97 % of control | dose: 50.0 mg/kg/injection, schedule: Q01DX009 (ip), vehicle: Klucel (hydroxypropylcellulose) (HPC) 103 % of control

Cc1cc[n+]([O-])cc1C
inactive: [10] 101 % of control | [11] 98 % of control | [12] 96 % of control | [13] 101 % of control

Cc1ccc(N2C(=O)ON(c3ccccc3)C2c2ccccc2)cc1 (configuration not stated)
inactive: dose: 50.0 mg/kg/injection, schedule: Q01DX001 (ip), vehicle: saline 100 % of control | [7] 102 % of control | [8] 106 % of control | [9] 108 % of control

COC(=O)c1ccccc1Nc1ccccc1[N+](=O)[O-]
inactive: dose: 75.0 mg/kg/injection, schedule: Q04DX003 (ip), vehicle: Klucel (hydroxypropylcellulose) (HPC) 101 % of control | dose: 100.0 mg/kg/injection, schedule: Q01DX001 (ip), vehicle: Klucel (hydroxypropylcellulose) (HPC) 100 % of control | [14] 87 % of control | dose: 200.0 mg/kg/injection, schedule: Q01DX001 (ip), vehicle: Klucel (hydroxypropylcellulose) (HPC) 95 % of control | dose: 300.0 mg/kg/injection, schedule: Q04DX003 (ip), vehicle: Klucel (hydroxypropylcellulose) (HPC) 90 % of control | dose: 400.0 mg/kg/injection, schedule: Q01DX001 (ip), vehicle: Klucel (hydroxypropylcellulose) (HPC) 113 % of control

CC(CO)(CO)C1CCCCC1
inactive: dose: 25.0 mg/kg/injection, schedule: Q04DX002 (ip), vehicle: saline with Tween-80 93 % of control | dose: 50.0 mg/kg/injection, schedule: Q04DX002 (ip), vehicle: saline with Tween-80 101 % of control | dose: 100.0 mg/kg/injection, schedule: Q04DX002 (ip), vehicle: saline with Tween-80 97 % of control

CC(=O)C(Cl)C(C)=O.CC(=O)CC(C)=O.CC(=O)CC(C)=O.[Rh]
inactive: dose: 50.0 mg/kg/injection, schedule: Q01DX001 (ip), vehicle: other 108 % of control | dose: 100.0 mg/kg/injection, schedule: Q01DX001 (ip), vehicle: other 102 % of control | dose: 200.0 mg/kg/injection, schedule: Q01DX001 (ip), vehicle: other 98 % of control | dose: 400.0 mg/kg/injection, schedule: Q01DX001 (ip), vehicle: other 98 % of control

CC(=O)OC1C(CO)OC2C1OC1=NC(N)=NCN12 (configuration not stated)
inactive: dose: 1.56 mg/kg/injection, schedule: Q01DX009 (ip), vehicle: saline 102 % of control and 119 % of control | dose: 3.12 mg/kg/injection, schedule: Q01DX009 (ip), vehicle: saline 102 % of control | dose: 6.25 mg/kg/injection, schedule: Q01DX009 (ip), vehicle: saline 95 % of control and 98 % of control | dose: 12.5 mg/kg/injection, schedule: Q01DX009 (ip), vehicle: saline 96 % of control and 98 % of control | [15] 96 % of control | [16] 100 % of control and 91 % of control | dose: 100.0 mg/kg/injection, schedule: Q01DX009 (ip), vehicle: saline 104 % of control and 91 % of control | dose: 200.0 mg/kg/injection, schedule: Q01DX009 (ip), vehicle: saline 107 % of control and 109 % of control

Cc1nc(CN(C)C)c2cnccn12
inactive: [15] 109 % of control | [16] 113 % of control | [4] 98 % of control

O=C1CSC(c2ccccc2)N1 (configuration not stated)
inactive: dose: 44.0 mg/kg/injection, schedule: Q04DX003 (ip), vehicle: Klucel (hydroxypropylcellulose) (HPC) 94 % of control and 103 % of control | dose: 67.0 mg/kg/injection, schedule: Q04DX003 (ip), vehicle: Klucel (hydroxypropylcellulose) (HPC) 98 % of control and 100 % of control | [10] 98 % of control | [17] 98 % of control and 100 % of control | [14] 98 % of control and 109 % of control | [12] 98 % of control | [18] 100 % of control | [19] 95 % of control | [20] 105 % of control

CC(=O)/C=C/c1ccc(O)cc1
inactive: [10] 98 % of control | [12] 96 % of control | [19] 100 % of control

CCCCN(CCCC)CC(O)c1cccc2c1cc(Cl)c1ccccc12 (configuration not stated)
inactive: [17] 102 % of control | [18] 97 % of control | [20] 91 % of control

CC(C)(C)NNC(=O)c1ccccc1
inactive: dose: 75.0 mg/kg/injection, schedule: Q04DX003 (ip), vehicle: saline with Tween-80 106 % of control

COc1ccc(C(=O)c2ccccc2)cc1
inactive: [11] 115 % of control | [13] 86 % of control | dose: 400.0 mg/kg/injection, schedule: Q04DX002 (ip), vehicle: Klucel (hydroxypropylcellulose) (HPC) 86 % of control

COc1ccccc1/C=C/c1cnccn1
inactive: [10] 98 % of control | [17] 96 % of control | [12] 101 % of control | [18] 102 % of control | [19] 93 % of control | [20] 104 % of control

C=C(C)CON=C(c1ccccc1)c1ccccc1
inactive: [4] 92 % of control | [5] 96 % of control | [6] 97 % of control

COc1c2c(cc3c1OCO3)[C@@]13CCN(C2)[C@@H]1CC=C[C@H]3O
inactive: dose: 5.0 mg/kg/injection, schedule: Q01DX001 (ip), vehicle: carboxymethylcellulose (CMC) 105 % of control | dose: 10.0 mg/kg/injection, schedule: Q01DX001 (ip), vehicle: carboxymethylcellulose (CMC) 105 % of control

Reference: PubChem BioAssay AID248 (DTP/NCI, 2004)
